The source of these data is ChEMBL document CHEMBL3864191 (ACS Med Chem Lett, 2016).

A word on the IC50: it is the concentration at which inhibition is half-maximal. For orientation: Ki means the dissociation constant of the complex between target and ligand, obtained from inhibition or displacement. One may read the GI50 as the concentration at which growth is held to half of that of the control.

Data set [1] is described as follows: Cytotoxicity against human DU145 cells assessed as reduction in cell viability after 72 hrs by MTT assay. The format is functional, cell-based, DU-145.
Data set [2] in a line: Cytotoxicity against mouse CT26 cells assessed as reduction in cell viability after 72 hrs by MTT assay. Format: functional, cell-based. For orientation: Formazan colour is commonly taken as a measure of viable cells.
Data set [3] deals with Induced myeloid leukemia cell differentiation protein Mcl-1 (Homo sapiens, UniProt Q07820). Description: Inhibition of FAM-Bid binding to human MCL1 expressed in Escherichia coli BL21 after 30 mins by fluorescence polarization assay. For orientation: In fluorescence polarisation assays a small probe gives low polarisation when free and higher when bound to something large.
Chain of Induced myeloid leukemia cell differentiation protein Mcl-1 (Q07820 whole entry): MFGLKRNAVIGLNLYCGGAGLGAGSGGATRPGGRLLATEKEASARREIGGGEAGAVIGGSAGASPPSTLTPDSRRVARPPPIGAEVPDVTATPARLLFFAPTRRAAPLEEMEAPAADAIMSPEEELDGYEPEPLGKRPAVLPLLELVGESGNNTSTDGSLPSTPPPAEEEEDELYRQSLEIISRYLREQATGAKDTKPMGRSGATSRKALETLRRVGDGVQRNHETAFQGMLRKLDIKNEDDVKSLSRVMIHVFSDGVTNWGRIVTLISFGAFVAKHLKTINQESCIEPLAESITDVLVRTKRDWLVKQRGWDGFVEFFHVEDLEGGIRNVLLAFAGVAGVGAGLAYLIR

Data set [4] has as its target Apoptosis regulator Bcl-2 (Homo sapiens, UniProt P10415). Description: Inhibition of FAM-Bid binding to human BCL2 expressed in Escherichia coli BL21 after 30 mins by fluorescence polarization assay.
The next data set has as its system MCF7. Description: Potency index, ratio of (-)-gossypol IC50 to compound IC50 for human MCF7 cells. The format is functional.
Data set [5] is described as follows: Cytotoxicity against human leukemia cells assessed as cell growth inhibition after 48 hrs by SRB assay. Format: functional. Background: Sulforhodamine B stains cellular protein and so reports cell mass.
Data set [6] can be described thus: Cytotoxicity against human non-small cell lung cancer cells assessed as cell growth inhibition after 48 hrs by SRB assay. The format is functional. The conditions noted are these: Cancer cell lines.
Data set [7] can be described thus: Cytotoxicity against human colon cancer cells assessed as cell growth inhibition after 48 hrs by SRB assay. The format is functional. The conditions noted are these: Cancer cell lines.
Data set [8] is described as follows: Cytotoxicity against human CNS cancer cells assessed as cell growth inhibition after 48 hrs by SRB assay. The note with it: Cancer cell lines. The format is functional.
Data set [9] is described as follows: Cytotoxicity against human melanoma cells assessed as cell growth inhibition after 48 hrs by SRB assay. The format is functional.
Data set [10] in a line: Cytotoxicity against human ovarian cancer cells assessed as cell growth inhibition after 48 hrs by SRB assay. The format is functional. The note with it: Cancer cell lines.
Data set [11] can be described thus: Cytotoxicity against human renal cancer cells assessed as cell growth inhibition after 48 hrs by SRB assay. The conditions noted are these: Cancer cell lines. The format is functional.
A short description of data set [12]: Cytotoxicity against human prostate cancer cells assessed as cell growth inhibition after 48 hrs by SRB assay. Format: functional. The note with it: Cancer cell lines.
Data set [13] can be described thus: Cytotoxicity against human breast cancer cells assessed as cell growth inhibition after 48 hrs by SRB assay. Format: functional. The conditions noted are these: Cancer cell lines.
Data set [14] in a line: Cytotoxicity against HEK293T cells assessed as reduction in cell viability at 0.33 to 100 uM after 72 hrs by MTT assay. The conditions noted are these: human, hek-293t. Format: toxicity, cell-based.
The nature of data set [15]: Cytotoxicity against African green monkey Vero cells assessed as reduction in cell viability at 0.33 to 100 uM after 72 hrs by MTT assay. The format is toxicity, cell-based. The conditions noted are these: chlorocebus sabaeus.
The nature of data set [16]: Cytotoxicity against human NCI60 cells assessed as cell growth inhibition after 48 hrs by SRB assay. The note with it: NCI60, 48 h. Format: functional.
Data set [17] in a line: Stability in human liver microsomes at 4.75 uM preincubated for 5 mins followed by NADPH addition after 60 mins by HPLC analysis. Format: ADME. The note with it: 1 h.
Data set [18] can be described thus: Stability in rat liver microsomes at 4.75 uM preincubated for 5 mins followed by NADPH addition after 60 mins by HPLC analysis. The format is ADME. The conditions noted are these: 1 h.
Data set [19] can be described thus: Chemical stability of compound in pH 1 to 10 Hcl solution after 3 hrs by HPLC analysis. The format is physicochemical. The conditions noted are these: buffer, pH 1, 3 h.
Data set [20] is described as follows: cells. The conditions noted are these: Homo sapiens, MCF7, 72 h.
Description: Cytotoxicity against human MCF7 cells assessed as reduction in cell viability after 72 hrs by MTT assay
Data set [21] in a line: cells. The conditions noted are these: Homo sapiens, HCT-116, 72 h.
Description: Cytotoxicity against human HCT116 cells assessed as reduction in cell viability after 72 hrs by MTT assay
The test system of another data set is HOP-92. Description: Cytotoxicity against human HOP92 cells assessed as cell growth inhibition after 48 hrs by SRB assay. The format is functional, cell-based.
The test system of the next data set is SNB-19. Description: Cytotoxicity against human SNB19 cells assessed as cell growth inhibition after 48 hrs by SRB assay. The format is functional, cell-based.
The subject of another data set is U-251. Description: Cytotoxicity against human U251 cells assessed as cell growth inhibition after 48 hrs by SRB assay. Format: functional, cell-based.
A further data set has as its system RXF 393. Description: Cytotoxicity against human RXF393 cells assessed as cell growth inhibition after 48 hrs by SRB assay. The format is functional, cell-based.
Another data set concerns NCI60. Description: Cytotoxicity against human NCI60 cells assessed as cell growth inhibition up to 10 uM after 48 hrs by SRB assay. The format is functional, cell-based.
Another data set concerns CT26. Description: Potency index, ratio of (-)-gossypol IC50 to compound IC50 for mouse CT26 cells. Format: functional.

Values joined by “and” are separate entries in the source; they are usually repeats but may differ in a detail not shown here. Equal entries are not always repeated. Active and inactive are the calls of the source. No cut-off for these calls is given here. Some results are limits rather than exact numbers.

Chain of Apoptosis regulator Bcl-2 (P10415 whole entry): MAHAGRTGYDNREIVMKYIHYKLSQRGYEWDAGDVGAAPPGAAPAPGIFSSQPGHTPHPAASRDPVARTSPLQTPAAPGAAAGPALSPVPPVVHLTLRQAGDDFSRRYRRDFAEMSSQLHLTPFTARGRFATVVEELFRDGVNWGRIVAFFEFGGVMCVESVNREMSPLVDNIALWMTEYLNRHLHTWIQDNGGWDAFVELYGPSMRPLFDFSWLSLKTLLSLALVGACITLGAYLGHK

Regarding `COC(=O)CCCN/C=C1\C(=O)C(O)=C(C(C)C)c2cc(C)c(-c3c(C)cc4c(c3O)/C(=C/NCCCC(=O)OC)C(=O)C(O)=C4C(C)C)c(O)c21` (stereo in doubt; 16), the 50% inhibitory concentration (IC50) in data set [1] (Homo sapiens, DU-145, 72 h) was determined as 2390 nM; in data set [2] (Mus musculus, CT26, 72 h), 8390 nM; in data set [3], 947 nM; in data set [4], 825 nM; in “cells [20]”, 4390 nM; in “cells [21]”, 2750 nM. In addition, the inhibitory constant (Ki) in [3] came out at 180 nM; in [4], 341 nM. In addition, the “Ratio IC50” value in the data set with MCF7 is reported as 12. For the same compound, the GI50 in data set [5] came out at 560 nM; in [6], 480 nM; in data set [7], 460 nM; in data set [8] it was 600 nM; in data set [9] it was 990 nM; in data set [10] it was 590 nM. Besides, the GI50 in data set [11] was 820 nM; in data set [12], 410 nM; in [13], 740 nM; in [16] it was 100 to 1700 nM. Further, the Activity result in data set [14] and in [15] was “Non-Toxic” each time. Also, the Stability result in data set [17], in [18] and in [19] was “Stable” in each case.

For the compound `COC(=O)CCCCN/C=C1\C(=O)C(O)=C(C(C)C)c2cc(C)c(-c3c(C)cc4c(c3O)/C(=C/NCCCCC(=O)OC)C(=O)C(O)=C4C(C)C)c(O)c21`, the half-inhibitory concentration (IC50) came to 7360 nM in data set [1] (Homo sapiens, DU-145, 72 h); 16600 nM in [2] (Mus musculus, CT26, 72 h); 740 nM in data set [3]; 483 nM in data set [4]; 8220 nM in the data set “cells [20]”; 3380 nM in “cells [21]”. Further, the Ki in data set [3] is 139 nM; in [4] it was 182 nM. Moreover, the GI50 in data set [5] is 810 nM; in data set [6] it was 1050 nM; in data set [7], 1000 nM; in data set [8], 1270 nM; in data set [9], 1420 nM; in data set [10], 1260 nM. The GI50 was found to be 1140 nM in data set [11], 1090 nM in data set [12] and 1080 nM in data set [13]. Besides, the Activity result in [14] and in data set [15] was “Non-Toxic” each time. In addition, the “growth inhibition (GI)” value in the data set on HOP-92, in the data set with SNB-19, in the data set on U-251, in the data set with RXF 393 and in the data set on NCI60 was “Active” in each case.

As to `CC1(C)CCC(CN2CCN(c3ccc(C(=O)NS(=O)(=O)c4ccc(NCC5CCOCC5)c([N+](=O)[O-])c4)c(Oc4cnc5[nH]ccc5c4)c3)CC2)=C(c2ccc(Cl)cc2)C1` [VENETOCLAX], the half-inhibitory concentration (IC50) in data set [3] was greater than 4000 nM. Moreover, in data set [3], the Ki was greater than 780 nM. In addition, the GI50 in data set [5] was determined as 2110 nM; in [6] it was 2700 nM; in data set [7], 2850 nM; in data set [8], 3350 nM; in data set [9] it was 1750 nM; in data set [10] it was 3330 nM. Besides, the concentration for 50% growth inhibition (GI50) was 2600 nM in data set [11], 3510 nM in [12], 2770 nM in [13] and 200 to 5100 nM in data set [16].

On to `Cc1cc2c(C(C)C)c(O)c(O)c(C=O)c2c(O)c1-c1c(C)cc2c(C(C)C)c(O)c(O)c(C=O)c2c1O` [GOSSYPOL], for which the IC50 in data set [1] (du-145) is 7970 nM and 19200 nM and 7930 nM; in data set [2] (ct26) it was 23200 nM and 61900 nM and 46800 nM; in data set [3] it was 856 nM; in “cells [20]” it was 54000 nM; in the data set “cells [21]” it was 3590 nM. This compound yielded a Ki in [3] of 162 nM. Besides, the 50% growth inhibitory concentration (GI50) came out at 2470 nM in data set [5]; 2850 nM in data set [6]; 3190 nM in data set [7]; 2970 nM in data set [8]; 3220 nM in [9]; 3500 nM in data set [10]. Further, the GI50 is 3160 nM in data set [11] and 800 to 5100 nM in [16]. Moreover, the Activity result in data set [14] and in [15] was “Toxic” throughout.

As to `Cc1cc2c(c(O)c1-c1c(C)cc3c(c1O)/C(=C/NCCCCCCC(=O)O)C(=O)C(O)=C3C(C)C)/C(=C/NCCCCCCC(=O)O)C(=O)C(O)=C2C(C)C`, the IC50 in data set [1] (Homo sapiens, DU-145, 72 h) worked out at 19100 nM; in [2] (Mus musculus, CT26, 72 h), 2080 nM; in “cells [20]” it was 11500 nM; in “cells [21]” it was 17300 nM. For the same compound, in the data set with CT26, the “Ratio IC50” value is 11. Besides, the Activity result in [14] and in data set [15] was “Non-Toxic” each time.
